One test has as its target Genome polyprotein (dengue virus type 2, UniProt P29990). The experiment in a line: Dengue-2 NS5 methyltransferase inhibitors, primary screen, biochemical, confirmation dose response (AID 588689). The class given is functional.
The target in test [1] is T1, Histone-lysine N-methyltransferase NSD2 (Homo sapiens, UniProt O96028).
T1 sequence (O96028 whole entry): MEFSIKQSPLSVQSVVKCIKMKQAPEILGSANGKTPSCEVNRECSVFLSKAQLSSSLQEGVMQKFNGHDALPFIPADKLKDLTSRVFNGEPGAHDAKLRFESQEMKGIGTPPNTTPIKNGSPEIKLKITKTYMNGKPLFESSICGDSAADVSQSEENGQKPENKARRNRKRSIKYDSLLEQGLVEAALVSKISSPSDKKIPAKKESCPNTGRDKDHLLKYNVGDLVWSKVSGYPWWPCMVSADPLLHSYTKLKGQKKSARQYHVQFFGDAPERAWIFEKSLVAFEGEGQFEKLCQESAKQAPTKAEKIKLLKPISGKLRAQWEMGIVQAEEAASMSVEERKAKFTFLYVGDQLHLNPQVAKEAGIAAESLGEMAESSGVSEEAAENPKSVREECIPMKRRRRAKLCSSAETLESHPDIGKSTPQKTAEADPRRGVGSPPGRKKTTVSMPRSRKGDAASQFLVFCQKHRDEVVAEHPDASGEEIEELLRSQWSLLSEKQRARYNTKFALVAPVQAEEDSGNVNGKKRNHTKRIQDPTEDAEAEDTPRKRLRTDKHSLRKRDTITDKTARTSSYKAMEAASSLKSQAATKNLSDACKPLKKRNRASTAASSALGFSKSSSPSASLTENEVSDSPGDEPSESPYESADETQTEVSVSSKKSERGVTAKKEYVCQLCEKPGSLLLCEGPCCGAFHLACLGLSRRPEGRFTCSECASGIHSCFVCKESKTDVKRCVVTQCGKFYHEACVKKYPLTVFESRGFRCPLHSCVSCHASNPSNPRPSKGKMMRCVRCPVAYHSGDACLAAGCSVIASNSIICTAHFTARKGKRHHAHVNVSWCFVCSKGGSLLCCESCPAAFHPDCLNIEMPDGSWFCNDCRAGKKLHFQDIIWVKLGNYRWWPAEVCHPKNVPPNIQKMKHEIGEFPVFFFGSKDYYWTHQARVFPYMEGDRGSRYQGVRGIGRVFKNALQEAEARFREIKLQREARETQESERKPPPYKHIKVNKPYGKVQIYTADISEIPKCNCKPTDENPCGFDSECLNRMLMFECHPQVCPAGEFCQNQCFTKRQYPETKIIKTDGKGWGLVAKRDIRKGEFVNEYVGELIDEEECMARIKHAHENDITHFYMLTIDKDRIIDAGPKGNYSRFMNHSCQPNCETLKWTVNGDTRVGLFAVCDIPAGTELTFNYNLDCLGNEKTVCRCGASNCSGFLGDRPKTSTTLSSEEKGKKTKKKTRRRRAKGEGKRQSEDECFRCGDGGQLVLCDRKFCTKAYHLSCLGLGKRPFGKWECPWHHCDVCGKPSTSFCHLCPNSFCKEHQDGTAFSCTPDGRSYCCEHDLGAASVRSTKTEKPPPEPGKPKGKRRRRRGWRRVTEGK
It is filed as biochemical.

The test system of test [2] is Streptococcus sp. 'group A'. The experiment in a line: growth inhibition of control SK(-) GAS strain, dose response, counter-screen for streptokinase expression inhibitor project, luminescence, kanamycin, BacTiterGlo, confirmation (AID 1900). The class given is functional, organism-based. The settings on record: read-out: EC50. On the technique in general: A counterscreen serves to expose hits that act by an unwanted route or on another target.

The target of test [3] is Glucose-6-phosphate 1-dehydrogenase (Homo sapiens, UniProt P11413). The experiment in a line: human G6PD enzyme inhibitors, dose response, selectivity assay for P. falciparum G6PD inhibitor project, biochemical, fluorescence (AID 504792). The class given is functional.
Test [4] can be described thus: inhibitors of intracellular T. cruzi replication, confirmation, NIH3T3 host cells, beta-gal luminescence (AID 2044).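 Note: intracellular parasites grown in NIH/3T3 mouse fibroblasts as host cells; luminescent beta-galactosidase reporter signal from transgenic T. cruzi replicating inside host cells; inhibitors lower the luminescence signal.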 The class given is functional, cell-based.
Test [5] concerns the target Heat shock protein HSP 90-alpha (Homo sapiens, UniProt P07900). It is filed as functional, organism-based.
Test [6] has as its target Serine/threonine-protein kinase TAO1 (Homo sapiens, UniProt Q7L7X3). The class given is functional.
The target of test [7] is Cell division cycle 7-related protein kinase (Homo sapiens, UniProt O00311). It is filed as functional.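 Note: value obtained from a kinome-wide kinase panel.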
The target in test [8] is Insulin-like growth factor 1 receptor (Homo sapiens, UniProt P08069). The experiment in a line: Navigating the Kinome. Panel member name: IGF1R. The class given is functional.
In test [9] the target is Homeodomain-interacting protein kinase 2 (Homo sapiens, UniProt Q9H2X6). The class given is functional.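 Note: measured within a kinome-wide kinase profiling panel, HIPK2 being one panel member.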
The target of test [10] is Protein-tyrosine kinase 2-beta (Homo sapiens, UniProt Q14289). The class given is functional.

Active and inactive are the calls of the source. Where only a bound is given, the exact number is not on record here.

Sequence of Cell division cycle 7-related protein kinase (O00311 whole entry): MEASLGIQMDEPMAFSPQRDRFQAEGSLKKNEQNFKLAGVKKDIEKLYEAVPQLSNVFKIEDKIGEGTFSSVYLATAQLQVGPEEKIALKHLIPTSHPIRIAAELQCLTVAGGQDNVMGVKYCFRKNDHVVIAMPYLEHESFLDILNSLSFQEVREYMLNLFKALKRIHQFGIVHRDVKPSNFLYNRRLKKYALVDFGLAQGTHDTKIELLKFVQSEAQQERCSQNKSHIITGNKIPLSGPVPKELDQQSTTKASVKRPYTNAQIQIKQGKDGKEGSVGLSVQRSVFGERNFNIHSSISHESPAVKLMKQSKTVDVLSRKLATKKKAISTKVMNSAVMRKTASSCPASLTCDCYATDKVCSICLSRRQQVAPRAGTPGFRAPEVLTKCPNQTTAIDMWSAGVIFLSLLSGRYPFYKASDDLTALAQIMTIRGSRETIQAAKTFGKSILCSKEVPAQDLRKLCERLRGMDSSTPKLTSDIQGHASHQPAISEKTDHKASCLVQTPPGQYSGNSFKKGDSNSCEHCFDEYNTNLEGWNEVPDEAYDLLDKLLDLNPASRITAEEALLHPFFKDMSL
Sequence of Insulin-like growth factor 1 receptor (P08069 31-736 limits assumed): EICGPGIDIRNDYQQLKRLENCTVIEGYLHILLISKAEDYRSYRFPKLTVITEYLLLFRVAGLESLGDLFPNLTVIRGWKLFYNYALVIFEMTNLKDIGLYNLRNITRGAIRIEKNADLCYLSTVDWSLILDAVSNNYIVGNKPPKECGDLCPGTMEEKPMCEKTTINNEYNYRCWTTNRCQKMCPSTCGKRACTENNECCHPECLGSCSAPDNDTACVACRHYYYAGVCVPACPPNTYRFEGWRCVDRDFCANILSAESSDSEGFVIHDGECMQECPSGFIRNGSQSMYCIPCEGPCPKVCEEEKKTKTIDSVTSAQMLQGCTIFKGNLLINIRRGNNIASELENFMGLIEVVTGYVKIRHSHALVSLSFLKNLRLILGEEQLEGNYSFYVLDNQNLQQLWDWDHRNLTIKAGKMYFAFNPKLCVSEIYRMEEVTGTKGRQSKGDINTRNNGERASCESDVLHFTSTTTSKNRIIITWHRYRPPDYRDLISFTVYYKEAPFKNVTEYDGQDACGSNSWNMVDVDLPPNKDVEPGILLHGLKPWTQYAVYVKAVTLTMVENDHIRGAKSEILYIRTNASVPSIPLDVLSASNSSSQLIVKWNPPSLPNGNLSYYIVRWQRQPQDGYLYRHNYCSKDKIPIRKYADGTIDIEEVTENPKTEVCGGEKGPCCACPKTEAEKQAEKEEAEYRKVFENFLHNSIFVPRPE
Sequence of Insulin-like growth factor 1 receptor (P08069 741-1367 limits assumed): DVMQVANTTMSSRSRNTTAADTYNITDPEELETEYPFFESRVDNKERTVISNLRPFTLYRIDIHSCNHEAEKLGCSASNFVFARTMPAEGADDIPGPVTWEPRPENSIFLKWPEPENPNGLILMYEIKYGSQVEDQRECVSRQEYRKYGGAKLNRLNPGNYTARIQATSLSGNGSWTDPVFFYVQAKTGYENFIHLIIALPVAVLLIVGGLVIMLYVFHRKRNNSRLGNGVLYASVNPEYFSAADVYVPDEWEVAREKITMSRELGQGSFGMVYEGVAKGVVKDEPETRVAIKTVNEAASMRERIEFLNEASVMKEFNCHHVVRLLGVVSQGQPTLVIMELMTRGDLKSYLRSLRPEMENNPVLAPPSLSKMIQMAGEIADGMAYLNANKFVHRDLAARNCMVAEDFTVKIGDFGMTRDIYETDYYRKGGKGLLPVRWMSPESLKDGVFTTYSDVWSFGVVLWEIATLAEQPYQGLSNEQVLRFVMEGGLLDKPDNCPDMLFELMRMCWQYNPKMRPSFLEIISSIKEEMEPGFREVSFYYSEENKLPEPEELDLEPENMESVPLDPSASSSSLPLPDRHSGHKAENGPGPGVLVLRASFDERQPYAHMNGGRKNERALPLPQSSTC
Sequence of Homeodomain-interacting protein kinase 2 (Q9H2X6 whole entry): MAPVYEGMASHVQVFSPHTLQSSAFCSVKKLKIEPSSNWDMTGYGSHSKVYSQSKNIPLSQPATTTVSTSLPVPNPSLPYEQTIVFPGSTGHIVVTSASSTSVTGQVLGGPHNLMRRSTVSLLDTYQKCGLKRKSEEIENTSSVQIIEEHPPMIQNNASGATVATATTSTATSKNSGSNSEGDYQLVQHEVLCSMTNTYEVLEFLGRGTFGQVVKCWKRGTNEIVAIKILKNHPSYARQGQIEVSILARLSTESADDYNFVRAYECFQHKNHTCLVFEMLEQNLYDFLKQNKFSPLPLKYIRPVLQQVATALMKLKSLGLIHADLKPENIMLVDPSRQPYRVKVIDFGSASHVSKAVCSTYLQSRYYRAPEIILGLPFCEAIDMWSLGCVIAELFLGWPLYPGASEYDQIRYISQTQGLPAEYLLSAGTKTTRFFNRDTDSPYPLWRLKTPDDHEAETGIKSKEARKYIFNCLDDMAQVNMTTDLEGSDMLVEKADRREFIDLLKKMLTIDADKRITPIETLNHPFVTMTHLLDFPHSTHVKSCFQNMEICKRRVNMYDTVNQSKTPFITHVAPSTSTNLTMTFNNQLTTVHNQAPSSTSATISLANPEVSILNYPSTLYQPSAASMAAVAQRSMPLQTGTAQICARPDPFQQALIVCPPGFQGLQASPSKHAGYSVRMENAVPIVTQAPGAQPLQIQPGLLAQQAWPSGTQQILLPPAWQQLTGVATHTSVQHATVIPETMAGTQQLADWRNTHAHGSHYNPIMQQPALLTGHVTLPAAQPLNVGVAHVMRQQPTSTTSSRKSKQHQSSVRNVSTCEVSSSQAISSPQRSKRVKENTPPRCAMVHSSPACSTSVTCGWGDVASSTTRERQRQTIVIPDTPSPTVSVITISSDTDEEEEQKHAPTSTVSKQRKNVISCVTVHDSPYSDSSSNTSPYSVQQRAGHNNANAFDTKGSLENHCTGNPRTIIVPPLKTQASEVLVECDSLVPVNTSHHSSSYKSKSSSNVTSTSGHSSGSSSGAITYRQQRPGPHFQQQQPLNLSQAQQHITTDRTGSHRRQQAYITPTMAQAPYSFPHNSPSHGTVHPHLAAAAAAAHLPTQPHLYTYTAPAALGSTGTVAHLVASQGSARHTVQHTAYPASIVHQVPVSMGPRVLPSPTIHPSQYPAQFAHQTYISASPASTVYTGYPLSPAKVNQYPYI
Sequence of Protein-tyrosine kinase 2-beta (Q14289 whole entry): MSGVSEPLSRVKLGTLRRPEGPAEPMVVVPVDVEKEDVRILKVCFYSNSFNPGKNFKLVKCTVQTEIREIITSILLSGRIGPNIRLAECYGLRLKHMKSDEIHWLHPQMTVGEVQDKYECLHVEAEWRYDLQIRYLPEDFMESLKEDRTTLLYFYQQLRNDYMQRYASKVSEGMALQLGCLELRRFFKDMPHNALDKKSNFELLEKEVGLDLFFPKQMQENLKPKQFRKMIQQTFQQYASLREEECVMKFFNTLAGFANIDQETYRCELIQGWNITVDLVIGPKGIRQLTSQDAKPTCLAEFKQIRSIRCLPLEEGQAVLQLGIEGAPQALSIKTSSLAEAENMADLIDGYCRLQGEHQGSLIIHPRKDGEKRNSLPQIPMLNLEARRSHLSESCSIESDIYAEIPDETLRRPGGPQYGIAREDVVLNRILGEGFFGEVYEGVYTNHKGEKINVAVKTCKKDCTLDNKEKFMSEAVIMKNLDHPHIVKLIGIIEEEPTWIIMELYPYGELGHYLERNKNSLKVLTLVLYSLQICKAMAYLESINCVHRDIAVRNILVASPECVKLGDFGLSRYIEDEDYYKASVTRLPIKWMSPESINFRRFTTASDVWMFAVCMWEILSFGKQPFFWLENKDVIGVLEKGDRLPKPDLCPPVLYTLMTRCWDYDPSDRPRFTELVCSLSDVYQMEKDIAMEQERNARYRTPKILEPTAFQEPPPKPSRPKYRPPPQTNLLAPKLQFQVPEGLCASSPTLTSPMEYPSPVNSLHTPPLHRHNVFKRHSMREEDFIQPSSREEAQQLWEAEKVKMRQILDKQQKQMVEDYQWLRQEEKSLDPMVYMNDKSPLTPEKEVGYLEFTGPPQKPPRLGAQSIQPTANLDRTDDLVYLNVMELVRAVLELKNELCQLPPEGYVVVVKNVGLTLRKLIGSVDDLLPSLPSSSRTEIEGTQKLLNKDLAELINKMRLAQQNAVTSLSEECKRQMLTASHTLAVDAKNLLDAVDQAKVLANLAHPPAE
Sequence of Glucose-6-phosphate 1-dehydrogenase (P11413 whole entry): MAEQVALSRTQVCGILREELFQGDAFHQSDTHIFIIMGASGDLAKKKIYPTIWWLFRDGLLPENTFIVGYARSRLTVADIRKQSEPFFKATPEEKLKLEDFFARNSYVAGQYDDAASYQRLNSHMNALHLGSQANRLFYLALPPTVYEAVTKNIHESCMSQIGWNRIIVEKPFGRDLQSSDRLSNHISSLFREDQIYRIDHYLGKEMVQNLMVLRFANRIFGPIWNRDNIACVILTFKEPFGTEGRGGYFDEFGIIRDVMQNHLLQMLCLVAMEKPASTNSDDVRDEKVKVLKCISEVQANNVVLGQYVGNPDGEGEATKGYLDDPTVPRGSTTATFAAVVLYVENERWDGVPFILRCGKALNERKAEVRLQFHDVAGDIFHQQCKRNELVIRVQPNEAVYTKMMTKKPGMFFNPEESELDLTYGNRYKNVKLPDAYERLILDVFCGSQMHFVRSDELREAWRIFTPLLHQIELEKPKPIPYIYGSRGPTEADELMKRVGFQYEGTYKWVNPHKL

The IC50 is the concentration that inhibits the measured activity by half. Consider `O=C1N=C(NS(=O)(=O)Cc2ccccc2)S/C1=C1\C(=O)Nc2ccccc21`, for which the IC50 at Genome polyprotein was 51.6 µM (active).

One may read the AC50 as the concentration at which the activity in the assay is half-maximal. As a reminder, the EC50 is the concentration giving half of the maximal effect. `O=C1C=C(N2CCCCC2)c2ccccc2C1=O`: the AC50 in [1] is 1.11 µM (active). Further, the half-maximal effective concentration (EC50) in [2] was 1.88 µM (active).

With `Clc1ccc2nc(-c3ccc(Br)s3)cn2c1`, in test [3], the IC50 was > 80 µM (inactive).

As for `O=C(CCc1ccccc1)NNc1cc(N2CCCCC2)nc(N2CCCCC2)n1`, the concentration giving a half-maximal response (EC50) in test [4] is 3.74 µM (active).

With `Oc1ccc(N=Nc2c(O)ccc3ccccc23)cc1`, the concentration at half-maximal activity (AC50) in test [5] is 5.61 µM (active).

By Ki is commonly meant a dissociation constant, usually derived from enzyme kinetics or from competition with a known ligand. The term pKi denotes the Ki on a negative log10 scale, so that one unit is a factor of ten. For `Cc1n[nH]c2ccc(-c3cncc(OCC(N)Cc4cccc(Cl)c4)c3)cc12` (configuration not stated), the inhibition constant (Ki) in [6] was 316 nM (active); in test [7], 0.794 nM (active); in test [8] it was > 2 µM (inactive); in test [9], 79.4 nM (active); in [10] it was 501 nM (active). In [7], this compound had a pKi of 9.1.

(Values after ChEMBL document CHEMBL1201862, “PubChem BioAssay data set” (2004).)
